Consider 26 compounds from patent US20190031665A1, “DERIVATIVES OF PYRROLOIMIDAZOLE OR ANALOGUES THEREOF WHICH ARE USEFUL FOR THE TREATMENT OF INTER ALIA CANCER” (EMCURE PHARMACEUTICALS LIMITED, priority 2016, published 2019).

Experiment [1] has as its target T1, human indoleamine 2,3-dioxygenase 1 (hIDO1) (Homo sapiens, UniProt P14902).
T1 construct: His tag (N); purchased BPS Bioscience, San Diego, Calif., USA; host or cells: E. coli
In words: In-vitro human indoleamine 2,3-dioxygenase 1 (IDO1) enzyme assay. The class given is biochemical. The conditions noted are these: for pIC50: hIDO1 enzyme; for inhibition at 1 µM: hIDO1 enzyme at 1.0 μM concentration; for inhibition at 10 µM: hIDO1 enzyme at 10.0 μM concentration. The method, then:
In-vitro human indoleamine 2,3-dioxygenase 1 (IDO1) enzyme assay: In the in-vitro human indoleamine 2,3-dioxygenase 1 (hIDO1) enzyme assay for screening inhibitor compounds, hIDO1 with an N-terminal histidine tag expressed and purified from E. coli (BPS Bioscience, San Diego, Calif., USA) was used. All other materials were procured from Sigma-Aldrich, St. Louis, Mo., USA.
The assay method for monitoring the conversion of L-tryptophan to N-formylkynurenine by hlDO1 was carried out as follows. hlDO1 (50 ng) was incubated with tryptophan (80 μM) in the presence of ascorbic acid (10 mM), methylene blue (10 μM), catalase (100 μg/ml) and 0.01% Tween-20 in sodium phosphate buffer (50 mM; pH 6.5) at 37° C. for 60 min. The reaction was terminated with 200 mM piperidine (PIP) and further incubated at about 65° C. for about 20 minutes to convert N-formylkynurenine (NFK) to NFK-PIP. The reaction mixture was then incubated at room temperature for about 1 hour. The fluorescence intensity was read in a fluorescence microplate reader at an excitation wavelength of 400 nm and emission wavelength of 500 nm. Percent inhibition at each concentration of test compounds was determined by estimating the decrease in NFK-PIP. Data were analyzed using nonlinear regression to generate IC50 values using Graph Pad Prism® 6.

In experiment [2] the target is T2, human tryptophan 2,3-dioxygenase (hTDO) (Homo sapiens, UniProt P48775).
T2 construct: His tag (N); purchased BPS Bioscience, San Diego, Calif., USA; host or cells: E. coli
T2 sequence (P48775 whole entry): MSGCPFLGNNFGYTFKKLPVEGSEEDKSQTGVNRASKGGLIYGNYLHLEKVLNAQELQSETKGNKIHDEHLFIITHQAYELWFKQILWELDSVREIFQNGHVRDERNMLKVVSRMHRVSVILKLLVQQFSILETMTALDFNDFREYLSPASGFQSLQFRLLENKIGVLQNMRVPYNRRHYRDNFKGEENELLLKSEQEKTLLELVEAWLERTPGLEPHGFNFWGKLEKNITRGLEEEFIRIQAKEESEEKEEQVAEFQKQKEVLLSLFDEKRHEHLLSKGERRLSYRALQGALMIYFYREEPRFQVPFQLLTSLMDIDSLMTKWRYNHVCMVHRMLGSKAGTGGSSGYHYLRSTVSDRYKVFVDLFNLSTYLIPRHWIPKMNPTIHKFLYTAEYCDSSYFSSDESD
The experiment in a line: In-vitro human tryptophan 2,3-dioxygenase (TDO) enzyme assay. The class given is biochemical. The conditions noted are these: for inhibition at 1 µM: hTDO enzyme at 1.0 μM concentration; for inhibition at 10 µM: hTDO enzyme at 10.0 μM concentration. The method, then:
In the in-vitro human tryptophan 2,3-dioxygenase (hTDO) enzyme assay for screening inhibitor compounds, hTDO with an N-terminal histidine tag expressed and purified from E. coli (BPS Bioscience, San Diego, Calif., USA) was used. All other materials were procured from Sigma-Aldrich, St. Louis, Mo., USA.
The assay monitoring method for the conversion of L-tryptophan to N-formylkynurenine by hTDO was carried out as follows. hTDO (125 ng) was incubated in the presence of 200 μM L-tryptophan, 100 mM sodium phosphate buffer (pH 7.0), 0.01% Tween-20 and 100 μM ascorbic acid at about 37° C. for about 60 minutes. The reaction was terminated with 200 mM piperidine (PIP) and further incubated at about 65° C. for about 20 minutes to convert N-formylkynurenine (NFK) to NFK-PIP. The reaction mixture was then incubated at room temperature for about 75 minutes. The fluorescence intensity was read in a fluorescence microplate reader at an excitation wavelength of 400 nm and emission wavelength of 500 nm. Percent inhibition at each concentration of test compounds was determined by estimating the decrease in NFK-PIP. Data were analyzed using nonlinear regression to generate IC50 values using Graph Pad Prism® 6.

pIC50: −log10 of the molar value.

T1 sequence (P14902 whole entry): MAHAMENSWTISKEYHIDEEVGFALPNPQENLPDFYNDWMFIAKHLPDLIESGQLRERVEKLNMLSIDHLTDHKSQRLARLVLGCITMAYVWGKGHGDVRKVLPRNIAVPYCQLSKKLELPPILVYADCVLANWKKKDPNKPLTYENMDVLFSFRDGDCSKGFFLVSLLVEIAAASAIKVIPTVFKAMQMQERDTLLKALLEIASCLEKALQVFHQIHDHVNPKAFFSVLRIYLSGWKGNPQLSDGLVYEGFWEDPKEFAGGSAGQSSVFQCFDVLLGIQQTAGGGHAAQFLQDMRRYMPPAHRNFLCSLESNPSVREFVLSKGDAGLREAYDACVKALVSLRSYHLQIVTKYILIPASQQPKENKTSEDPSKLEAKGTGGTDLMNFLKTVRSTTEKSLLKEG

In experiment [1], `CC1=C(c2ccccc2)C(CC(=O)c2ccc(NC(=O)Cc3ccccc3F)cc2)n2cncc21` (stereo not shown) [Example 176, 2-(2-fluorophenyl)-N-(4-(2-(7-methyl-6-phenyl-5H-pyrrolo[1,2-c]imidazol-5-yl)acetyl)phenyl)acetamide] had a negative logarithm of the IC50 (pIC50) above 6.30, an inhibition at 1 µM of at least 50% and an inhibition at 10 µM of at least 50%. Further, in experiment [2], the inhibition at 1 µM is at least 50%.

For `CC1=C(c2ccccc2)C(CC(=O)c2cccc(C(F)(F)F)c2)n2cncc21` (stereo not shown) [Example 29, 2-(7-Methyl-6-phenyl-5H-pyrrolo[1,2-c]imidazol-5-yl)-1-(3-trifluoromethyl-phenyl)-ethanone], in experiment [1], the pIC50 was above 6.30, the inhibition at 1 µM is at least 50% and the inhibition at 10 µM is at least 50%. In experiment [2], the inhibition at 1 µM was at least 50% and the inhibition at 10 µM was at least 50%.

In experiment [1], `CC1=C(c2ccccc2)C(CC(O)C23CC4CC(CC(C4)C2)C3)n2cncc21` (stereo not shown) [Example 108] gave an inhibition at 1 µM of at least 50% and an inhibition at 10 µM of at least 50%. Further, the inhibition at 1 µM in experiment [2] is at least 50%.

Consider `CC1=C(c2ccccc2)C(CC(=O)C2CCN(C(=O)Cc3ccccc3F)CC2)n2cncc21` (stereo not shown) [Example 138, 2-(2-Fluorophenyl)-1-(4-(2-(7-methyl-6-phenyl-5H-pyrrolo[1,2-c]imidazol-5-yl)acetyl)piperidin-1-yl)ethan-1-one], for which, in experiment [1], the inhibition at 1 µM was at least 50% and the inhibition at 10 µM was at least 50%. The compound further had an inhibition at 1 µM in experiment [2] of at least 50%.

Take `CCOC(=O)N1CCC(C(=O)CC2C(c3ccccc3)=C(C)c3cncn32)CC1` (stereo not shown) [Example 146]: the inhibition at 1 µM in experiment [1] and in experiment [2] was at most 50% throughout. This compound displayed an inhibition at 10 µM in experiment [1] of at least 50%.

Consider `CC1=C(c2ccccc2)C(CC(=O)C2CCCCC2)n2cncc21` (stereo not shown) [Example 88, 1-Cyclohexyl-2-(7-methyl-6-phenyl-5H-pyrrolo[1,2-c]imidazol-5-yl)-ethanone], for which, in experiment [1], the pIC50 is below 6.30 and the inhibition at 10 µM was at least 50%. In experiment [2], this compound showed an inhibition at 1 µM of at least 50% and an inhibition at 10 µM of at least 50%.

For the compound `CC1=C(c2ccccc2)C(CC(=O)c2cccc(Br)c2)n2cncc21` (stereo not shown) [Example 68, 1-(3-Bromo-phenyl)-2-(7-methyl-6-phenyl-5H-pyrrolo[1,2-c]imidazol-5-yl)-ethanone], in experiment [1], the inhibition at 1 µM is at least 50% and the inhibition at 10 µM was at least 50%. Moreover, the inhibition at 1 µM in experiment [2] is at least 50%.

For the compound `OC(CC1C2=C(CCCC2)c2cncn21)c1cccc(OCc2ccccc2)c1` (stereo not shown) [Example 8], the inhibition at 10 µM in experiment [1] was at most 50%; in experiment [2], at least 50%.

Regarding `CC1=C(c2ccccc2)C(CC(=O)c2ccc(F)c(Cl)c2)n2cncc21` (stereo not shown) [Example 39, 1-(3-chloro-4-fluorophenyl)-2-(7-methyl-6-phenyl-5H-pyrrolo[1,2-c]imidazol-5-yl)ethan-1-one], in experiment [1], the pIC50 is above 6.30, the inhibition at 1 µM was at least 50% and the inhibition at 10 µM was at least 50%. The inhibition at 1 µM in experiment [2] is at least 50%.

In experiment [1], `CC1=C(c2ccccc2)C(CC(O)C2CCN(S(=O)(=O)c3ccccc3)CC2)n2cncc21` (stereo not shown) [Example 145] showed a pIC50 above 6.30, an inhibition at 1 µM of at least 50% and an inhibition at 10 µM of at least 50%. The inhibition at 1 µM in experiment [2] is at least 50%.

In experiment [1], `CC1=C(c2ccccc2)C(CC(=O)c2ccc(-c3ccc(C)s3)cc2)n2cncc21` (stereo not shown) [Example 64] had a pIC50 above 6.30, an inhibition at 1 µM of at least 50% and an inhibition at 10 µM of at least 50%. The inhibition at 1 µM in experiment [2] is at most 50%.

As for `CC1=C(c2ccccc2C)C(CC(O)C2CCCCC2)n2cncc21` (stereo not shown) [Example 105], in experiment [1], the inhibition at 1 µM is at most 50% and the inhibition at 10 µM is at least 50%. This compound also showed an inhibition at 1 µM in experiment [2] of at most 50%.

In experiment [1], `CC1=C(c2ccccc2)C(CC(O)C2CCN(C(=O)Cc3ccccc3)CC2)n2cncc21` (stereo not shown) [Example 180] had a pIC50 above 6.30, an inhibition at 1 µM of at least 50% and an inhibition at 10 µM of at least 50%. Also, in experiment [2], the inhibition at 1 µM was at least 50%.

Consider `CC1=C(c2ccc(C)cc2)C(CC(O)C2CCCCC2)n2cncc21` (stereo not shown) [Example 87, 1-Cyclohexyl-2-(7-methyl-6-(p-tolyl)-5H-pyrrolo[1,2-c]imidazol-5-yl)ethan-1-ol], for which the inhibition at 1 µM in experiment [1] is at most 50%; in experiment [2], at least 50%. Moreover, the inhibition at 10 µM in experiment [1] was at least 50%.

In experiment [1], `COc1ccc(C(=O)CC2C(c3ccccc3)=C(C)c3cncn32)cc1` (stereo not shown) [Example 37, 1-(4-methoxyphenyl)-2-(7-methyl-6-phenyl-5H-pyrrolo[1,2-c]imidazol-5-yl)ethan-1-one] showed a pIC50 above 6.30, an inhibition at 1 µM of at least 50% and an inhibition at 10 µM of at least 50%. In addition, the inhibition at 1 µM in experiment [2] is at least 50%.

Consider `CC1=C(c2ccccc2)C(CC(=O)c2ccc(-c3ccccc3)cc2)n2cncc21` (single isomer, unassigned; isomer-i) [Example 42, 1-([1,1′-biphenyl]-4-yl)-2-(7-methyl-6-phenyl-5H-pyrrolo[1,2-c]imidazol-5-yl)ethan-1-one, Isomer-I], for which, in experiment [1], the negative logarithm of the IC50 (pIC50) was above 6.30, the inhibition at 1 µM is at least 50% and the inhibition at 10 µM is at least 50%. In addition, the inhibition at 1 µM in experiment [2] was at least 50%.

In experiment [1], `CC1=C(c2ccccc2)C(CC(=O)c2ccc(N(C)C)cc2)n2cncc21` (stereo not shown) [Example 46, 1-(4-(dimethylamino)phenyl)-2-(7-methyl-6-phenyl-5H-pyrrolo[1,2-c]imidazol-5-yl)ethan-1-one] registered an inhibition at 1 µM of at most 50% and an inhibition at 10 µM of at least 50%. The compound also came in with an inhibition at 1 µM in experiment [2] of at least 50%.

With `CC1=C(c2ccccc2)C(CC(=O)c2ccc3c(c2)OCO3)n2cncc21` (stereo not shown) [Example 28, 1-Benzo[1,3]dioxol-5-yl-2-(7-methyl-6-phenyl-5H-pyrrolo[1,2-c]imidazol-5-yl)-ethanone], in experiment [1], the pIC50 was above 6.30, the inhibition at 1 µM was at least 50% and the inhibition at 10 µM was at least 50%. In addition, in experiment [2], the inhibition at 1 µM was at least 50% and the inhibition at 10 µM was at least 50%.

Take `CC1=C(c2ccccc2)C(CC(=O)C2CCC(C(=O)N3CCC(=O)CC3)CC2)n2cncc21` (stereo not shown) [Example 124]: the inhibition at 1 µM in experiment [1] and in experiment [2] was at most 50% each time. Also, the inhibition at 10 µM in experiment [1] is at least 50%.

`CCCCCCCCC(O)CC1C(c2ccccc2)=C(C)c2cncn21` (stereo not shown) [Compound 171, 1-(7-Methyl-6-phenyl-5H-pyrrolo[1,2-c]imidazol-5-yl)-decan-2-ol] yielded an inhibition at 1 µM in experiment [1] of at least 50%. Moreover, the inhibition at 10 µM in experiment [1] and in experiment [2] was at least 50% in each case.

Regarding `CC1=C(c2ccccc2)C(CC(=O)C2CCC(O)CC2)n2cncc21` (stereo not shown) [Example 99], in experiment [1], the inhibition at 1 µM is at most 50% and the inhibition at 10 µM is at least 50%. The inhibition at 1 µM in experiment [2] is at least 50%.

In experiment [1], `CNC(=O)c1ccc(C(=O)CC2C(c3ccccc3)=C(C)c3cncn32)cc1` (stereo not shown) [Example 78] displayed an inhibition at 1 µM of at least 50% and an inhibition at 10 µM of at least 50%. In experiment [2], this compound showed an inhibition at 1 µM of at least 50% and an inhibition at 10 µM of at least 50%.

For `CC1=C(c2ccccc2)C(CC(=O)C2CCN(C(=O)c3ccccc3)CC2)n2cncc21` (stereo not shown) [Example 142], in experiment [1], the inhibition at 1 µM was at most 50% and the inhibition at 10 µM was at least 50%. The compound also yielded an inhibition at 1 µM in experiment [2] of at least 50%.

On to `O=C(CC1C2=C(CCCC2)c2cncn21)c1cccc(OCc2ccccc2)c1` (stereo not shown) [Example 7], for which the inhibition at 10 µM was at most 50% in experiment [1] and at least 50% in experiment [2].

For `O=C(CC1C2=C(CCCC2)c2cncn21)c1ccccc1` (stereo not shown) [Example 1, 1-Phenyl-2-(6,7,8,9-tetrahydro-5H-imidazo[5,1-a]isoindol-5-yl)-ethanone], the inhibition at 10 µM in experiment [1] was at most 50%; in experiment [2], at least 50%.

For the compound `CC1=C(c2ccccc2)C(CC(O)CCC(=O)N2CCC(O)CC2)n2cncc21` (stereo not shown) [Example 174, 4-Hydroxy-1-(4-hydroxypiperidin-1-yl)-5-(7-methyl-6-phenyl-5H-pyrrolo[1,2-c]imidazol-5-yl)pentan-1-one], in experiment [1], the inhibition at 1 µM was at most 50% and the inhibition at 10 µM is at least 50%. The inhibition at 1 µM in experiment [2] is at most 50%.

Usually pIC50 stands for the IC50 on a negative log10 scale, so that one unit is a factor of ten. Usually inhibition stands for how much of the control response was suppressed. Higher therefore signals strong suppression.
